Measurements reported in patent US5198552A, “Indole derivative having antiviral, interferon-inducing and immunomodulatory effects” (priority 1991, dated 1993).
Where a name gives a salt, the structure may show the parent alone. Read-outs that look alike come from different tables or passages of the source.

Experiments:
interferon [1] = details: mouse blood serum; cited from earlier work
peritoneal macrophages = test: Absorbing capacity of mouse peritoneal macrophages (neutral red); assay type: in vivo, mice
[2] = cited from earlier work
stem cells = test: Inactivation of stem cells with allogenic lymphocytes (graft versus host, spleen endocolonies); assay type: in vivo, mice
antibody-producing cells = test: Antibody-producing cells in the spleen of mice immunized with sheep erythrocytes; assay type: in vivo
interferon [3] = details: human blood serum; cited from earlier work
interferon [4] = details: cell culture; cited from earlier work
influenza A virus = test: Activity against influenza A virus; assay type: cell-based
influenza A/B viruses [5] = assay type: cell-based
influenza B virus = test: Activity against influenza B virus; assay type: cell-based; details: hydrochloride
Protocol: The antiviral effect of the preparation against influenza A/B viruses was tested on a hen embryo fabroblast cell culture.

[6] = in vivo; cited from earlier work
[7] = Maximum tolerable concentration for chick embryo fibroblasts; assay type: cell-based; details: chicken
influenza viruses = test: Virucidal action on influenza viruses
influenza A/B viruses [8] = test: Medicinal effect on experimental influenzal pneumonia of mice induced by influenza A/B viruses; assay type: in vivo
in vivo = details: mouse, po
[9] = 1 day after single administration
[10] = 2 day after single administration
[11] = 3 day after single administration

## c1ccc([C@H]2CN3CCSC3=N2)cc1 [Levamisole, (-) 2,3,5,6,-tetrahydro-6-phenylimidazo-/2.1.b/-thiazole hydrochloride, reference compound]
Interferon [1]
  interferon titers: 160-320 U/ml
Peritoneal macrophages; [9]
  Absorbing Capacity of Peritoneal Macrophages: 24.2 ± 4.5 mg/6 × 10^6 cells
  Absorbing Capacity, percent of control: 116 ± 21%
Peritoneal macrophages; [10]
  Absorbing Capacity of Peritoneal Macrophages: 27.7 ± 3.2 mg/6 × 10^6 cells
  Absorbing Capacity, percent of control: 121 ± 14%
Peritoneal macrophages; [11]
  Absorbing Capacity of Peritoneal Macrophages: 32.5 ± 2.4 mg/6 × 10^6 cells
  Absorbing Capacity, percent of control: 135 ± 9.9%
Peritoneal macrophages; by 2-3 days after a single administration, p<0.05
  absorbing capacity of macrophages: 138±11%
Peritoneal macrophages; mouse, in vivo
  effect on counts of macrophages washed off the peritoneal cavity: no effect on counts of macrophages
[2]; in vivo
  side-effects: a headache, sleep disturbances, olfactory hallicinations (odour changes), allergic skin hypersensitivity, influenza-like and neurologic symptoms
  toxicity: highly toxic
[2]; treatment as an immunomodulator
  agranulocytosis: decrease of neutrophile to a value: below 25%
Stem cells; 1.25 × 10^6 lymphocytes
  The counts of spleen endocolonies (M ± m): 2.3 ± 0.5
Stem cells; 2.5 × 10^6 lymphocytes
  The counts of spleen endocolonies (M ± m): 1.1 ± 0.2
Stem cells; 5.0 × 10^6 lymphocytes
  The counts of spleen endocolonies (M ± m): 0.7 ± 0.2
Stem cells; no lymphocytes given, hydrochloride
  The counts of spleen endocolonies (M ± m): 1.1 ± 0.3
Stem cells; no lymphocytes given, listed as levamisole, hydrochloride
  The counts of spleen endocolonies (M ± m): somewhat decreases the yield of the spleen colonies
Stem cells; preparation 100 mg per 1 kg orally, levamisole 5 mg per 1 kg
  effect on yield of spleen colonies under graft versus host conditions: identical but a less pronounced effect
antibody-producing cells; 7-17 day of tumor development, single (3 days prior to immunization) or 5-times daily
  immunopotentiating effect on tumor-carrier animals: inefficient
antibody-producing cells; intact mice, 5 times at a 5-day interval
  Antibody-producing cells in spleen (% of control): 170 ± 15.1%
antibody-producing cells; intact mice, during 3 days, daily
  Antibody-producing cells in spleen (% of control): 164 ± 6.1%
antibody-producing cells; irradiated animals
  immunostimulating effect on irradiated animals: of low efficacy
antibody-producing cells; totally irradiated (2 Gr.), 5 times at a 5-day interval
  Antibody-producing cells in spleen (% of control): 104 ± 6.0%
antibody-producing cells; totally irradiated (2 Gr.), during 3 days, daily
  Antibody-producing cells in spleen (% of control): 174 ± 24.0%
antibody-producing cells; totally irradiated tumor-carriers
  immunopotentiating effect on totally irradiated tumor-carrier animals: also had the immunopotentiating effect
antibody-producing cells; totally irradiated tumor-carriers (2 Gr.), 5 times at a 5-day interval
  Antibody-producing cells in spleen (% of control): 402 ± 12.5%
antibody-producing cells; totally irradiated tumor-carriers (2 Gr.), during 3 days, daily
  Antibody-producing cells in spleen (% of control): 86.0 ± 35.0%
antibody-producing cells; tumor-carriers, 5 times at a 5-day interval
  Antibody-producing cells in spleen (% of control): 91 ± 14.0%
antibody-producing cells; tumor-carriers, during 3 days, daily
  Antibody-producing cells in spleen (% of control): 14 ± 23.0%
Interferon [3]
  interferon titers: 40-80 U/ml
Interferon [4]
  interferon titers: 80-160 U/ml

## CC(N)C12CC3CC(CC(C3)C1)C2 (stereo not shown) [Remantadine, alfa-methyl-1-adamantanemethylamine hydrochloride]
Influenza A virus
  efficacy against influenza A virus: efficient only against influenza A virus
Influenza A/B viruses [5]
  inhibition of influenza A/B virus reproduction / chemotherapeutical effect: Inhibits the reproduc-
Influenza B virus
  efficacy against influenza B virus: It is inefficient against
Influenza B virus; listed as remantadine
  efficacy against influenza B virus: inefficient against influenza B virus
[6]
  side-effect: side-effect on a central nervous system
[7]
  MNTC: 20 µg/mL
Influenza viruses
  virucidal action on influenza viruses: No virucidal action
Influenza A/B viruses [8]
  medicinal (chemotherapeutical) effect on influenzal pneumonia: Exert a medicinal effect
In vivo
  LD50: 340 mg/kg
